Reference: patent US11666558B2, “Methods of treating intraocular pressure with activators of Tie-2” (EyePoint Pharmaceuticals, Inc., priority 2015, dated 2023)
Where two headings read alike, the source gives them in different places.

Assay: Ocular tissue concentrations (aqueous humor, vitreous humor, iris, retina, choroid, cornea) after topical ocular, subcutaneous and intravitreal administration
Assay type: in vivo, New Zealand White rabbits
Conditions: for Cornea Conc. (ng/mL) OS: Cornea homogenate; for Cornea Conc. (ng/mL) OS / concentration at 0.5 h / concentration at 1 h / concentration at 2 h / concentration at 4 h: subcutaneous 5 mg/kg/dose; for concentration at 6 hr / concentration at 24 hr / concentration at 48 hr / concentration at 72 hr / concentration at 0.5 h / concentration at 1 h / concentration at 2 h / concentration at 4 h: New Zealand White, rabbit; for concentration at 6 hr / concentration at 24 hr / concentration at 48 hr / concentration at 72 hr: other: intravitreal, 2.5 mg/eye; for concentration at 0.5 h / concentration at 1 h / concentration at 2 h / concentration at 4 h: subcutaneous, 5 mg/kg/dose
Experimental: To measure the concentration of Compound 1 in plasma and ocular tissues following topical ocular, subcutaneous, and intravitreal administration, New Zealand White rabbits were administered Compound 1, and plasma and ocular samples were collected at pre-determined time points. Compound 1 formulations were prepared fresh on each day of dosing.
Ocular tissue samples from both eyes of each animal were collected and weights were recorded. Plasma and ocular tissue sample concentrations of Compound 1 were determined by LC-MS/MS.
New Zealand White rabbits weighing 2.5 to 3.5 kg were used on this study. Rabbits were housed one per cage. Animals were not fasted and only healthy animals with no ocular illness were used. Two rabbits per group were sacrificed at each of four ocular tissue sampling time points for a total of eight rabbits per group.
Animals were anesthetized for ocular (topical) and intravitreal dosing following the 12IA7 IACUC protocol. Each rabbit received a bolus dose of test formulation either via topical ocular administration 3 times daily on Days 1 and 2 (at 0, 6, and 12 hours), and once on Day 3 (at 0 hours) into both eyes; via intravitreal administration into both eyes once on Day 1 (at 0 hours); or via subcutaneous administration 2 times daily on Days 1 and 2 (at 0 and 8 hours) and once daily on Day 3 (at 0 hours). Doses were given within an approximately 1 hour window each day where applicable.
On Day 1, for intravitreal administration, or on Day 3, for topical ocular and subcutaneous administration, at the appropriate ocular tissue collection time points, animals were euthanized and both eyes were enucleated immediately. Following enucleation, each eye was rinsed with phosphate-buffered saline. Ocular tissue samples from both eyes of each animal were collected at predetermined time points and weights were recorded. All the samples were frozen immediately on dry ice, and stored at −60° C. to −80° C. pending bioanalysis.
An LC-MS/MS method was developed for the determination of Compound 1 in rabbit aqueous tissues (plasma, aqueous and vitreous humor) and solid ocular tissue samples. A pre-study standard curve was analyzed to determine the specificity, range, and lower limit of quantitation of the method. Plasma and tissue homogenate study samples were extracted and analyzed. All the samples were treated identically to the standards.
One eight-point standard curve was used in each analytical batch. To be accepted, each batch must have had at least five of eight standards with accuracy within ±20% of nominal, except at the lower limit of quantification (LLOQ), where ±25% was acceptable.
Concentration versus time data is plotted in FIGS. 3-16. All data are expressed as ng/g of the free drug. Samples that were below the limit of quantitation (0.2 ng/mL) were not used in the calculation of averages.

[1] = choroid homogenate, Choroid homogenate, left eye, intravitreal 2.5 mg/eye (group 5), individual animals, read-out: Conc. (ng/mL) OS
[2] = choroid homogenate, Choroid homogenate, OD, sodium salt, intravitreal 2.5 mg/eye, Group 4, read-out: Choroid Conc. (ng/mL) OD
[3] = choroid homogenate, Choroid homogenate, OS, sodium salt, intravitreal 2.5 mg/eye, Group 4, read-out: Choroid Conc. (ng/mL) OS
[4] = choroid homogenate, Choroid homogenate, right eye, intravitreal 2.5 mg/eye (group 5), individual animals, read-out: Conc. (ng/mL) OD
[5] = choroid homogenate, Choroid homogenate, OD, sodium salt, Group 2, read-out: Choroid Conc. (ng/mL) OD
[6] = choroid homogenate, Choroid homogenate, OS, sodium salt, Group 2, read-out: Choroid Conc. (ng/mL) OS
[7] = choroid, Choroid, OD, sodium salt, intravitreal 2.5 mg/eye, Group 4, read-out: Choroid Conc. (ng/g) OD
[8] = choroid, Choroid, OS, sodium salt, intravitreal 2.5 mg/eye, Group 4, read-out: Choroid Conc. (ng/g) OS
[9] = choroid, Choroid, average, intravitreal 2.5 mg/eye (group 5), read-out: Avg.
[10] = choroid, Choroid, left eye, intravitreal 2.5 mg/eye (group 5), individual animals, read-out: Conc. (ng/g) OS
[11] = choroid, Choroid, sodium salt, intravitreal 2.5 mg/eye, Group 4, read-out: Choroid Avg.
[12] = choroid, Choroid, right eye, intravitreal 2.5 mg/eye (group 5), individual animals, read-out: Conc. (ng/g) OD
[13] = choroid, Choroid, OD, sodium salt, Group 2, read-out: Choroid Conc. (ng/g) OD
[14] = choroid, Choroid, OS, sodium salt, Group 2, read-out: Choroid Conc. (ng/g) OS
[15] = choroid, Choroid, free acid, Group 3, read-out: Choroid Average
[16] = choroid, Choroid, sodium salt, Group 2, read-out: Choroid Average

concentration at 6 hr [1]: 63400 ng/mL
concentration at 24 hr [2]: 11800 ng/mL
concentration at 24 hr [3]: 9890 ng/mL
concentration at 24 hr [1]: 28400 ng/mL
concentration at 48 hr [2]: 3480 ng/mL
concentration at 48 hr [3]: 3740 ng/mL
concentration at 48 hr [1]: 9320 ng/mL
concentration at 48 hr [4]: 9940 ng/mL
concentration at 72 hr [3]: 282 ng/mL
concentration at 72 hr [1]: 2660 ng/mL
concentration at 72 hr [4]: 2180 ng/mL
concentration at 0.5 h [5]: 24 ng/mL
concentration at 0.5 h (choroid homogenate, Choroid homogenate, OS, free acid, Group 3, read-out: Choroid Conc. (ng/mL) OS): 7.55 ng/mL
concentration at 0.5 h [6]: 25.6 ng/mL
concentration at 1 h (choroid homogenate, Choroid homogenate, 1 hr, OD, free acid, Group 3, read-out: Choroid Conc. (ng/mL) OD): 6.04 ng/mL
concentration at 1 h (choroid homogenate, Choroid homogenate, 1 hr, OD, sodium salt, Group 2, read-out: Choroid Conc. (ng/mL) OD): 29.1 ng/mL
concentration at 1 h (choroid homogenate, Choroid homogenate, 1 hr, OS, free acid, Group 3, read-out: Choroid Conc. (ng/mL) OS): 8.01 ng/mL
concentration at 1 h (choroid homogenate, Choroid homogenate, 1 hr, OS, sodium salt, Group 2, read-out: Choroid Conc. (ng/mL) OS): 13.1 ng/mL
concentration at 2 h (choroid homogenate, Choroid homogenate, 2 hr, OD, free acid, Group 3, read-out: Choroid Conc. (ng/mL) OD): 3.32 ng/mL
concentration at 2 h (choroid homogenate, Choroid homogenate, 2 hr, OS, free acid, Group 3, read-out: Choroid Conc. (ng/mL) OS): 4.84 ng/mL
concentration at 4 h (choroid homogenate, Choroid homogenate, OD, free acid, Group 3, read-out: Choroid Conc. (ng/mL) OD): 4.82 ng/mL
concentration at 4 h [5]: 1.7 ng/mL
concentration at 4 h [6]: 1.22 ng/mL
concentration at 0.5 h (choroid homogenate, TABLE 16: Choroid homogenate, OS, free acid, Group 3, read-out: Choroid Conc. (ng/mL) OS): 7.55 ng/mL
concentration at 1 h (choroid homogenate, TABLE 16: Choroid homogenate, 1 hr, OD, free acid, Group 3, read-out: Choroid Conc. (ng/mL) OD): 6.04 ng/mL
concentration at 1 h (choroid homogenate, TABLE 16: Choroid homogenate, 1 hr, OS, free acid, Group 3, read-out: Choroid Conc. (ng/mL) OS): 8.01 ng/mL
concentration at 2 h (choroid homogenate, TABLE 16: Choroid homogenate, 2 hr, OD, free acid, Group 3, read-out: Choroid Conc. (ng/mL) OD): 3.32 ng/mL
concentration at 2 h (choroid homogenate, TABLE 16: Choroid homogenate, 2 hr, OS, free acid, Group 3, read-out: Choroid Conc. (ng/mL) OS): 4.84 ng/mL
concentration at 4 h (choroid homogenate, TABLE 16: Choroid homogenate, OD, free acid, Group 3, read-out: Choroid Conc. (ng/mL) OD): 4.82 ng/mL
concentration at 6 hr [7]: 346000 ng/g
concentration at 6 hr [8]: 484000 ng/g
concentration at 6 hr [9]: 664000 ng/g
concentration at 6 hr [10]: 697000 ng/g
concentration at 6 hr [11]: 947000 ng/g
concentration at 24 hr [7]: 130000 ng/g
concentration at 24 hr [8]: 109000 ng/g
concentration at 24 hr [9]: 398000 ng/g
concentration at 24 hr [10]: 312000 ng/g
concentration at 24 hr [11]: 139000 ng/g
concentration at 48 hr [7]: 38300 ng/g
concentration at 48 hr [8]: 41100 ng/g
concentration at 48 hr [9]: 120000 ng/g
concentration at 48 hr [10]: 103000 ng/g
concentration at 48 hr [12]: 109000 ng/g
concentration at 48 hr [11]: 38600 ng/g
concentration at 72 hr [8]: 3100 ng/g
concentration at 72 hr [9]: 27600 ng/g
concentration at 72 hr [10]: 29300 ng/g
concentration at 72 hr [12]: 24000 ng/g
concentration at 72 hr [11]: 2720 ng/g
concentration at 0.5 h [13]: 264 ng/g
concentration at 0.5 h (choroid, Choroid, OS, free acid, Group 3, read-out: Choroid Conc. (ng/g) OS): 83.1 ng/g
concentration at 0.5 h [14]: 282 ng/g
concentration at 0.5 h [15]: 127 ng/g
concentration at 0.5 h [16]: 266 ng/g
concentration at 1 h (choroid, Choroid, 1 hr, OD, free acid, Group 3, read-out: Choroid Conc. (ng/g) OD): 66.4 ng/g
concentration at 1 h (choroid, Choroid, 1 hr, OD, sodium salt, Group 2, read-out: Choroid Conc. (ng/g) OD): 320 ng/g
concentration at 1 h (choroid, Choroid, 1 hr, OS, free acid, Group 3, read-out: Choroid Conc. (ng/g) OS): 88.1 ng/g
concentration at 1 h (choroid, Choroid, 1 hr, OS, sodium salt, Group 2, read-out: Choroid Conc. (ng/g) OS): 144 ng/g
concentration at 1 h (choroid, Choroid, 1 hr, free acid, Group 3, read-out: Choroid Average): 83.3 ng/g
concentration at 1 h (choroid, Choroid, 1 hr, sodium salt, Group 2, read-out: Choroid Average): 200 ng/g
concentration at 2 h (choroid, Choroid, 2 hr, OD, free acid, Group 3, read-out: Choroid Conc. (ng/g) OD): 36.5 ng/g
concentration at 2 h (choroid, Choroid, 2 hr, OS, free acid, Group 3, read-out: Choroid Conc. (ng/g) OS): 53.2 ng/g
concentration at 2 h (choroid, Choroid, 2 hr, free acid, Group 3, read-out: Choroid Average): 47.7 ng/g
concentration at 2 h (choroid, Choroid, 2 hr, sodium salt, Group 2, read-out: Choroid Average): 68.8 ng/g
concentration at 4 h (choroid, Choroid, OD, free acid, Group 3, read-out: Choroid Conc. (ng/g) OD): 53 ng/g
concentration at 4 h [13]: 18.7 ng/g
concentration at 4 h [14]: 13.4 ng/g
concentration at 4 h [15]: 61 ng/g
concentration at 4 h [16]: 15.5 ng/g
concentration at 0.5 h (choroid, TABLE 16: Choroid, OS, free acid, Group 3, read-out: Choroid Conc. (ng/g) OS): 83.1 ng/g
concentration at 0.5 h (choroid, TABLE 16: Choroid, free acid, Group 3, read-out: Choroid Average): 127 ng/g
concentration at 1 h (choroid, TABLE 16: Choroid, 1 hr, OD, free acid, Group 3, read-out: Choroid Conc. (ng/g) OD): 66.4 ng/g
concentration at 1 h (choroid, TABLE 16: Choroid, 1 hr, OS, free acid, Group 3, read-out: Choroid Conc. (ng/g) OS): 88.1 ng/g
concentration at 1 h (choroid, TABLE 16: Choroid, 1 hr, free acid, Group 3, read-out: Choroid Average): 83.3 ng/g
concentration at 2 h (choroid, TABLE 16: Choroid, 2 hr, OD, free acid, Group 3, read-out: Choroid Conc. (ng/g) OD): 36.5 ng/g
Structure (SMILES): COC(=O)N[C@@H](Cc1ccccc1)C(=O)N[C@@H](Cc1ccc(NS(=O)(=O)O)cc1)c1csc(-c2cccs2)n1 [Compound 1]
Cornea Conc. (ng/mL) OS (1 hr, OS, free acid, Group 3): BLOQ (Below the limit of quantitation (0.5 ng/mL))
Cornea Conc. (ng/mL) OS (2 hr, OS, free acid, Group 3): BLOQ (Below the limit of quantitation (0.5 ng/mL))
